The source of these data is US11034650B2, “Compounds useful for treating a Mannheimia haemolytica or Histophilus somni infection” (Intervet Inc., priority 2016, dated 2021).

In brackets after ≈: the same amount, converted by molar mass. Some results are limits rather than exact numbers.

One experiment has as its system Pasteurella multocida PM 6267 (P 2225 (L386), reference strain, mouse infection strain). Put plainly: MIC, broth-microdilution (CLSI VET01-A4), strain PM 6267. It is filed as cell-based. The note with it: Pasteurella multocida strain PM 6267, broth-microdilution; unit assumed. Summed up:
(§1)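 Test articles are arrayed as a twofold dilution range in microdilution trays. Wells are scored by naked eye, and the MIC is taken where turbidity first disappears.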
Regarding `CC(C)[C@H](NC(=O)c1ccc(C#Cc2ccc(CNCC3CCCO3)cc2)cc1)C(=O)NO` (stereo partly shown) [Compound 200], the MIC PM 6267 is at most 0.1 µg/mL.

As for `CSC(C)(C)[C@H](NC(=O)c1ccc(C#Cc2ccc(CNCc3ncc(C)o3)nc2)cc1)C(=O)NO` [Compound 347], the MIC PM 6267 is 1.6 µg/mL (≈ 3.15 µM).

As to `CSC(C)(C)[C@H](NC(=O)c1ccc(C#Cc2ccc(CNCC#N)nc2)cc1)C(=O)NO` [Compound 342], the MIC PM 6267 was determined as 1.6 µg/mL (≈ 3.54 µM).

For `CSC(C)(C)[C@H](NC(=O)c1ccc(C#Cc2ccc(CNCc3ccccn3)nc2)cc1)C(=O)NO` [Compound 343], the MIC PM 6267 was found to be 3.1 µg/mL (≈ 6.16 µM).

For a further experiment, the system named is Mannheimia haemolytica MH 6357 (M7/2, reference strain, cattle infection strain). In words: MIC, broth-microdilution (CLSI VET01-A4), strain MH 6357. The format is cell-based. The note with it: Mannheimia haemolytica strain MH 6357, broth-microdilution; unit assumed. Summed up: as §1
With `CC(C)[C@H](NC(=O)c1ccc(C#Cc2ccc(CNCC3CCCO3)cc2)cc1)C(=O)NO` (stereo partly shown) [Compound 200], the MIC MH 6357 was 6.3 µg/mL (≈ 14 µM).

With `CSC(C)(C)[C@H](NC(=O)c1ccc(C#Cc2ccc(CNCc3ncc(C)o3)nc2)cc1)C(=O)NO` [Compound 347], the MIC MH 6357 was found to be 0.8 µg/mL (≈ 1.58 µM).

Take `CSC(C)(C)[C@H](NC(=O)c1ccc(C#Cc2ccc(CNCC#N)nc2)cc1)C(=O)NO` [Compound 342]: the MIC MH 6357 was determined as 1.6 µg/mL (≈ 3.54 µM).

`CSC(C)(C)[C@H](NC(=O)c1ccc(C#Cc2ccc(CNCc3ccccn3)nc2)cc1)C(=O)NO` [Compound 343] showed an MIC MH 6357 of 3.1 µg/mL (≈ 6.16 µM).

Another experiment relates to Mannheimia haemolytica MH 6374 (ATCC 33396, reference strain). Put plainly: MIC, broth-microdilution (CLSI VET01-A4), strain MH 6374. It is filed as cell-based. The note with it: Mannheimia haemolytica strain MH 6374, broth-microdilution; unit assumed. Put shortly: as §1
In turn, `CC(C)[C@H](NC(=O)c1ccc(C#Cc2ccc(CNCC3CCCO3)cc2)cc1)C(=O)NO` (stereo partly shown) [Compound 200] had an MIC MH 6374 of 3.1 µg/mL (≈ 6.9 µM).

Turning to `CSC(C)(C)[C@H](NC(=O)c1ccc(C#Cc2ccc(CNCc3ncc(C)o3)nc2)cc1)C(=O)NO` [Compound 347], the MIC MH 6374 was determined as 1.6 µg/mL (≈ 3.15 µM).

With `CSC(C)(C)[C@H](NC(=O)c1ccc(C#Cc2ccc(CNCC#N)nc2)cc1)C(=O)NO` [Compound 342], the MIC MH 6374 came to 3.1 µg/mL (≈ 6.87 µM).

`CSC(C)(C)[C@H](NC(=O)c1ccc(C#Cc2ccc(CNCc3ccccn3)nc2)cc1)C(=O)NO` [Compound 343] came in with an MIC MH 6374 of 3.1 µg/mL (≈ 6.16 µM).

Another experiment relates to Pasteurella multocida PM 10775 (080130003051, BRD field isolate). Put plainly: MIC, broth-microdilution (CLSI VET01-A4), strain PM 10775. The format is cell-based. The settings on record: Pasteurella multocida strain PM 10775, broth-microdilution; unit assumed. Put shortly: as §1
A general note: Dilution methods test growth across graded concentrations, often in twofold steps.
In turn, `CC(C)[C@H](NC(=O)c1ccc(C#Cc2ccc(CNCC3CCCO3)cc2)cc1)C(=O)NO` (stereo partly shown) [Compound 200] had an MIC PM 10775 of at most 0.1 µg/mL.

For the compound `CSC(C)(C)[C@H](NC(=O)c1ccc(C#Cc2ccc(CNCc3ncc(C)o3)nc2)cc1)C(=O)NO` [Compound 347], the MIC PM 10775 is at most 0.1 µg/mL.

Consider `CSC(C)(C)[C@H](NC(=O)c1ccc(C#Cc2ccc(CNCC#N)nc2)cc1)C(=O)NO` [Compound 342], for which the MIC PM 10775 turned out to be 0.2 µg/mL (≈ 0.443 µM).

Consider `CSC(C)(C)[C@H](NC(=O)c1ccc(C#Cc2ccc(CNCc3ccccn3)nc2)cc1)C(=O)NO` [Compound 343], for which the MIC PM 10775 worked out at 0.4 µg/mL (≈ 0.794 µM).

Another experiment deals with Mannheimia haemolytica MH 13093 (XB0472-6014.1, BRD field isolate). Put plainly: MIC, broth-microdilution (CLSI VET01-A4), strain MH 13093. It is filed as cell-based. The note with it: Mannheimia haemolytica strain MH 13093, broth-microdilution; unit assumed. Summed up:
as §1
In the case of `CC(C)[C@H](NC(=O)c1ccc(C#Cc2ccc(CNCC3CCCO3)cc2)cc1)C(=O)NO` (stereo partly shown) [Compound 200], the MIC MH 13093 came out at 3.1 µg/mL (≈ 6.9 µM).

Take `CSC(C)(C)[C@H](NC(=O)c1ccc(C#Cc2ccc(CNCc3ncc(C)o3)nc2)cc1)C(=O)NO` [Compound 347]: the MIC MH 13093 worked out at 1.6 µg/mL (≈ 3.15 µM).

`CSC(C)(C)[C@H](NC(=O)c1ccc(C#Cc2ccc(CNCC#N)nc2)cc1)C(=O)NO` [Compound 342] yielded an MIC MH 13093 of 3.1 µg/mL (≈ 6.87 µM).

`CSC(C)(C)[C@H](NC(=O)c1ccc(C#Cc2ccc(CNCc3ccccn3)nc2)cc1)C(=O)NO` [Compound 343] came in with an MIC MH 13093 of 6.3 µg/mL (≈ 12.5 µM).

A further experiment relates to Mannheimia haemolytica MH 13065 (XB0446-6003.9, BRD field isolate). Put plainly: MIC, broth-microdilution (CLSI VET01-A4), strain MH 13065. The format is cell-based. The settings on record: Mannheimia haemolytica strain MH 13065, broth-microdilution; unit assumed. Put shortly:
as §1
`CC(C)[C@H](NC(=O)c1ccc(C#Cc2ccc(CNCC3CCCO3)cc2)cc1)C(=O)NO` (stereo partly shown) [Compound 200] showed an MIC MH 13065 of 1.6 µg/mL (≈ 3.56 µM).

As for `CSC(C)(C)[C@H](NC(=O)c1ccc(C#Cc2ccc(CNCc3ncc(C)o3)nc2)cc1)C(=O)NO` [Compound 347], the MIC MH 13065 is 1.6 µg/mL (≈ 3.15 µM).

`CSC(C)(C)[C@H](NC(=O)c1ccc(C#Cc2ccc(CNCC#N)nc2)cc1)C(=O)NO` [Compound 342] gave an MIC MH 13065 of 3.1 µg/mL (≈ 6.87 µM).

Regarding `CSC(C)(C)[C@H](NC(=O)c1ccc(C#Cc2ccc(CNCc3ccccn3)nc2)cc1)C(=O)NO` [Compound 343], the MIC MH 13065 amounted to 3.1 µg/mL (≈ 6.16 µM).

In another experiment the test system is Mannheimia haemolytica MH 10720 (154, BRD field isolate). In words: MIC, broth-microdilution (CLSI VET01-A4), strain MH 10720. It is filed as cell-based. The note with it: Mannheimia haemolytica strain MH 10720, broth-microdilution; unit assumed. Put shortly:
as §1
On to `CC(C)[C@H](NC(=O)c1ccc(C#Cc2ccc(CNCC3CCCO3)cc2)cc1)C(=O)NO` (stereo partly shown) [Compound 200], for which the MIC MH 10720 was found to be 0.8 µg/mL (≈ 1.78 µM).

As to `CSC(C)(C)[C@H](NC(=O)c1ccc(C#Cc2ccc(CNCc3ncc(C)o3)nc2)cc1)C(=O)NO` [Compound 347], the MIC MH 10720 was determined as 0.2 µg/mL (≈ 0.394 µM).

`CSC(C)(C)[C@H](NC(=O)c1ccc(C#Cc2ccc(CNCC#N)nc2)cc1)C(=O)NO` [Compound 342] registered an MIC MH 10720 of 0.4 µg/mL (≈ 0.886 µM).

With `CSC(C)(C)[C@H](NC(=O)c1ccc(C#Cc2ccc(CNCc3ccccn3)nc2)cc1)C(=O)NO` [Compound 343], the MIC MH 10720 was 0.4 µg/mL (≈ 0.794 µM).

A further experiment has as its system Pasteurella multocida PM 12080 (IV102277-0093, BRD field isolate). In words: MIC, broth-microdilution (CLSI VET01-A4), strain PM 12080. It is filed as cell-based. The settings on record: Pasteurella multocida strain PM 12080, broth-microdilution; unit assumed. Put shortly: as §1
Take `CC(C)[C@H](NC(=O)c1ccc(C#Cc2ccc(CNCC3CCCO3)cc2)cc1)C(=O)NO` (stereo partly shown) [Compound 200]: the MIC PM 12080 amounted to 0.2 µg/mL (≈ 0.445 µM).

Regarding `CSC(C)(C)[C@H](NC(=O)c1ccc(C#Cc2ccc(CNCc3ncc(C)o3)nc2)cc1)C(=O)NO` [Compound 347], the MIC PM 12080 came to 0.8 µg/mL (≈ 1.58 µM).

The compound `CSC(C)(C)[C@H](NC(=O)c1ccc(C#Cc2ccc(CNCC#N)nc2)cc1)C(=O)NO` [Compound 342] displayed an MIC PM 12080 of 0.8 µg/mL (≈ 1.77 µM).

Compound `CSC(C)(C)[C@H](NC(=O)c1ccc(C#Cc2ccc(CNCc3ccccn3)nc2)cc1)C(=O)NO` [Compound 343] had an MIC PM 12080 of 1.6 µg/mL (≈ 3.18 µM).

The test system of a further experiment is Mannheimia haemolytica MH 12587 (1071, BRD field isolate, macrolide-resistance: erm+, E+). In words: MIC, broth-microdilution (CLSI VET01-A4), strain MH 12587. The format is cell-based. The settings on record: Mannheimia haemolytica strain MH 12587, broth-microdilution; unit assumed. Put shortly:
as §1
On to `CC(C)[C@H](NC(=O)c1ccc(C#Cc2ccc(CNCC3CCCO3)cc2)cc1)C(=O)NO` (stereo partly shown) [Compound 200], for which the MIC MH 12587 stood at 6.3 µg/mL (≈ 14 µM).

Consider `CSC(C)(C)[C@H](NC(=O)c1ccc(C#Cc2ccc(CNCc3ncc(C)o3)nc2)cc1)C(=O)NO` [Compound 347], for which the MIC MH 12587 was 3.1 µg/mL (≈ 6.11 µM).

For `CSC(C)(C)[C@H](NC(=O)c1ccc(C#Cc2ccc(CNCC#N)nc2)cc1)C(=O)NO` [Compound 342], the MIC MH 12587 came to 6.3 µg/mL (≈ 14 µM).

`CSC(C)(C)[C@H](NC(=O)c1ccc(C#Cc2ccc(CNCc3ccccn3)nc2)cc1)C(=O)NO` [Compound 343]: the MIC MH 12587 came to 6.3 µg/mL (≈ 12.5 µM).

Another experiment relates to Pasteurella multocida PM 6391 (ATCC 43137, reference strain). In words: MIC, broth-microdilution (CLSI VET01-A4), strain PM 6391. The format is cell-based. The settings on record: Pasteurella multocida strain PM 6391, broth-microdilution; unit assumed. Here is the method: For example, representative compounds were tested against ***, Mannheimia haemolytica and Pasteurella multocida, using the conventional broth-dilution assay.
The Minimum inhibitory concentrations (MIC) of compounds according to the invention for a number of veterinary bacterial pathogens were determined by the broth-microdilution method according to CLSI document VET01-A4.
Microdilution trays containing a doubling dilution series of the test compound were used for the tests. The MIC results were interpreted according to the CLSI documents VET01-S3. The lowest concentration of compound at which no visible growth (i.e. no turbidity) detected by the unaided eye was recorded as the MIC.
As for `CC(C)[C@H](NC(=O)c1ccc(C#Cc2ccc(CNCC3CCCO3)cc2)cc1)C(=O)NO` (stereo partly shown) [Compound 200], the MIC PM 6391 was 0.2 µg/mL (≈ 0.445 µM).

`CSC(C)(C)[C@H](NC(=O)c1ccc(C#Cc2ccc(CNCc3ncc(C)o3)nc2)cc1)C(=O)NO` [Compound 347]: the MIC PM 6391 is 0.8 µg/mL (≈ 1.58 µM).

As to `CSC(C)(C)[C@H](NC(=O)c1ccc(C#Cc2ccc(CNCC#N)nc2)cc1)C(=O)NO` [Compound 342], the MIC PM 6391 was determined as 1.6 µg/mL (≈ 3.54 µM).

`CSC(C)(C)[C@H](NC(=O)c1ccc(C#Cc2ccc(CNCc3ccccn3)nc2)cc1)C(=O)NO` [Compound 343] yielded an MIC PM 6391 of 6.3 µg/mL (≈ 12.5 µM).
